Reference: patent US20200399329A1, “ANTIMICROBIAL PEPTIDES” (priority 2015, published 2020)
Values after ≈ are worked out from the molar mass of the structure shown. Where a SMILES comes first, the peptide text is derived from it. Bridges are numbered along the chain shown (N, C = ends). Where no end group is shown, it is not given here.

Legend:
P. aeruginosa BAA-2795 = type: cell-based, Pseudomonas aeruginosa
Procedure: (§1) In order to determine the MIC values of the peptides, growth and inhibition of various bacteria were monitored after treatment with the peptides of the invention (Table B). E. coli, K. pneumoniae, P. aeruginosa and Salmonella bacteria were cultured at 37° C. and at 5×10^6 CFU/ml in a standard 96-well-plate, in Mueller Hinton broth. […] The growth of the bacteria was continuously monitored via spectrophotometry at a wave-length of 625 nm. As bacterial growth progresses, Optical density at 625 nm (OD625 nm) values increase, and where the bacterial growth is inhibited, OD625 nm values remain constant. The experimental system and parameters described herein were used to determine the MIC values of OMN3, OMN5, OMN8 and OMN9 on various bacteria strains (Table B). Using the standard MHB MIC testing for antibiotic activity

E. coli strains = type: cell-based
Procedure: as §1

Proteinase-K = Proteinase-K (Parengyodontium album, UniProt P06873); test: Proteinase-K (ProtK) proteolysis stability, Coommassie Blue stained gel; type: in vitro ADME; settings: 10 μg protein, 2 hours at 37° C.
Chain of Proteinase-K (P06873 106-384, species assumed): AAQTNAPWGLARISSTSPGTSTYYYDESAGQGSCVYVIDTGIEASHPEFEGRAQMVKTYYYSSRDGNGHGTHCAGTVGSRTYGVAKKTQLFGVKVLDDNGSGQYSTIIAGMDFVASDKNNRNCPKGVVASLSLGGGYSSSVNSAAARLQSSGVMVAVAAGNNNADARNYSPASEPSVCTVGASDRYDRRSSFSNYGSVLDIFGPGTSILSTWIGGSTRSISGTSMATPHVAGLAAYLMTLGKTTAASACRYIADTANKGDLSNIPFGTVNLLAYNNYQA
Procedure: Proteinase-K (ProtK) was used to assess the stability of OMN6 versus native Cecropin A (CecA) and Bovine Serum Albumin (BSA) (See FIG. 1 A). 10 μg of each protein were incubated with increasing concentrations of between 5-20 ng of ProtK as specified, for 2 hours at 37° C. Samples were boiled at 100° C. for five minutes and separated on 15% acrylamide gel. The gel was then stained with Coommassie Blue and excess dye was removed over-night. […] In lane 2, the CecA band was weaker than the untreated sample band in lane 1. In lane 8, fragments of degraded BSA were detected, evidence of partial degradation.
The same experimental system as described above was used to assess the stability of OMN2, OMN7 and OMN11 against proteolytic degradation by ProtK (see FIG. 1B).

| Compound | MIC (P. aeruginosa BAA-2795) | MIC for E. coli strains (E. coli strains) | Degradation by ProtK (gel band) (Proteinase-K; 5 ng ProtK) | Degradation by ProtK (gel band) (Proteinase-K; 20 ng ProtK) |
| --- | --- | --- | --- | --- |
| CC[C@H](C)[C@@H]1NC(=O)[C@H](C)NC(=O)[C@H](C)NC(=O)[C@H](C)NC(=O)[C@H](CCC(N)=O)NC(=O)CNC(=O)[C@H](C(C)C)NC(=O)[C@H]([C@@H](C)O)NC(=O)[C@H](C)NC(=O)[C@H](C(C)C)NC(=O)[C@H](C)NC(=O)[C@@H]2CCCN2C(=O)[C@H](C)NC(=O)[C@H](C)NC(=O)[C@H](CO)NC(=O)[C@H]([C@@H](C)O)NC(=O)[C@H](C(C)C)NC(=O)[C@H](C)NC(=O)[C@H](CC(=O)O)NC(=O)[C@H](CCCNC(=N)N)NC(=O)[C@H](C(C)C)NC(=O)[C@H](CCCNC(=N)N)NC(=O)[C@H](CCC(N)=O)NC(=O)CNC(=O)[C@H](C)NC(=O)[C@H](CCCNC(=N)N)NC(=O)[C@H](CCC(=O)O)NC(=O)[C@H](CC(C)C)NC(=O)[C@H](CCC(=O)O)NC(=O)[C@H](CCCCN)NC(=O)[C@H](Cc2ccccc2)NC(=O)[C@@H]2CCCN2C(=O)[C@H](CC(N)=O)NC(=O)[C@H](Cc2c[nH]c3ccccc23)NC(=O)[C@@H](NC(=O)[C@@H](N)CCSC)CSSC[C@@H](C(=O)O)NC(=O)[C@H](CCCNC(=N)N)NC(=O)[C@H](C)NC1=O [OMN3] (H-MCWNPFKELERAGQRVRDAVTSAAPAVATVGQAAAIARC-OH; disulfide 2-39; N-terminus and C-terminus assumed) | 256 µg/mL (≈ 62.2 µM) | above 256 μg/mL |  |  |
| CC[C@H](C)[C@@H]1NC(=O)[C@H](C)NC(=O)[C@H](CC(=O)O)NC(=O)[C@H](CCCNC(=N)N)NC(=O)[C@H](C(C)C)NC(=O)[C@H](CCCNC(=N)N)NC(=O)[C@H](CCC(N)=O)NC(=O)CNC(=O)[C@H](C)NC(=O)[C@H](CCCNC(=N)N)NC(=O)[C@H](CCC(=O)O)NC(=O)[C@H](CC(C)C)NC(=O)[C@H](CCC(=O)O)NC(=O)[C@H](CCCCN)NC(=O)[C@H](Cc2ccccc2)NC(=O)[C@@H]2CCCN2C(=O)[C@H](CC(N)=O)NC(=O)[C@H](Cc2c[nH]c3ccccc23)NC(=O)[C@@H](NC(=O)[C@@H](N)CCSC)CSSC[C@@H](C(=O)O)NC(=O)[C@H](CCCCN)NC(=O)[C@H](C)NC(=O)[C@H](CC(C)C)NC(=O)[C@H](C)NC(=O)[C@H]([C@@H](C)O)NC(=O)[C@H](C)NC(=O)[C@H](CCC(N)=O)NC(=O)[C@H](C)NC(=O)[C@H](C(C)C)NC(=O)[C@H]([C@@H](C)O)NC(=O)[C@H](C)NC(=O)[C@H](C(C)C)NC(=O)[C@H](C)NC(=O)[C@@H]2CCCN2C(=O)CNC(=O)[C@H](C)NC(=O)[C@H](CO)NC(=O)[C@H]([C@@H](C)CC)NC1=O [OMN5] (H-MCWNPFKELERAGQRVRDAIISAGPAVATVAQATALAKC-OH; disulfide 2-39; N-terminus and C-terminus assumed) | 256 µg/mL (≈ 61.8 µM) | above 256 μg/mL |  |  |
| Bovine Serum Albumin [BSA, reference compound] |  |  | partially degrade | completely degrade |
| KWKLFKKIEKVGQNIRDGIIKAGPAVAVVGQATQIAK-NH2 (C-terminus assumed) [CecA, reference compound] |  |  | partially degrade | completely degrade |
